In paper PMC6274495, “Purification and Characterization of a White Laccase with Pronounced Dye Decolorizing Ability and HIV-1 Reverse Transcriptase Inhibitory Activity from Lepista nuda” (Molecules, 2016):
Structures can show the parent of a compound that is named as a salt.

Tested on: T1, L. nuda laccase
T1 construct: gene EC 1.10.3.2; native, purified from culture broth (fraction SU3); 56 kDa monomer; white laccase
Assay: spectrophotometric oxidation, Lineweaver-Burk plot
Type: biochemical, Collybia nuda
Details: HAc-NaAc buffer pH 4.6, 25 °C

- Km: 190 µM
SMILES: CCn1c(=NN=c2sc3cc(S(=O)(=O)O)ccc3n2CC)sc2cc(S(=O)(=O)O)ccc21 [ABTS, 2,7-azinobis(3-ethylbenzothia-zolone-6-sulfonic acid) diammonium salt]
